According to ChEMBL document CHEMBL5338791, “Discovery of Novel 1,3-Diphenylpyrazine Derivatives as Potent S-Phase Kinase-Associated Protein 2 (Skp2) Inhibitors for the Treatment of Cancer” (J Med Chem, 2023):
Values after ≈ are worked out from the molar mass of the structure shown. Active and inactive are the calls of the source. The rule behind the calls is not given here.

What was measured:
PC-3 [1] = test: Induction of cell cycle arrest in human PC-3 cells assessed as accumulation of cells at S phase at 10 uM incubated for 48 hrs by flow cytometry (reference value: 22.44 %); format: functional
PC-3 [2] = test: Induction of cell cycle arrest in human PC-3 cells assessed as accumulation of cells at G2 phase at 10 uM incubated for 12 hrs by flow cytometry (reference value: 19.34 %); format: functional
PC-3 [3] = test: Induction of cell cycle arrest in human PC-3 cells assessed as accumulation of cells at G1 phase at 10 uM incubated for 48 hrs by flow cytometry (reference value: 57.39 %); format: functional
MGC-803 [4] = test: Induction of cell cycle arrest in human MGC-803 cells assessed as accumulation of cells at G2 phase at 10 uM incubated for 24 hrs by flow cytometry (reference value: 20.64 %); format: functional
PC-3 [5] = test: Inhibition of cell migration in human PC-3 cells incubated for 48 hrs by wound healing assay; format: functional, cell-based; details: dose <= 2.0 µM
MGC-803 [6] = test: Antitumor activity against human MGC-803 cells xenografted in NOD-SCID mouse model assessed as downregulation of Skp2 expression at 10 to 50 mg/kg, IG administered once every 2 days for 21 days by Western blot analysis; format: functional, organism-based; details: dose 10-50 mg/kg, time 21.0 day
MGC-803 [7] = test: Induction of cell cycle arrest in human MGC-803 cells assessed as accumulation of cells at G2 phase at 10 uM incubated for 48 hrs by flow cytometry (reference value: 20.64 %); format: functional
[8] = Toxicity in mouse assessed as decrease in total protein level at 10 to 50 mg/kg; format: organism-based; details: in vivo, dose 10-50 mg/kg
PC-3 [9] = test: Downregulation of Skp2 level in human PC-3 cells incubated for 48 hrs by Western blot analysis; format: functional, cell-based; details: dose <= 10.0 µM
[10] = Cmax in tumor of NOD-SCID mouse model xenografted with human PC-3 cells at 25 mg/kg, IG measured upto 48 hrs by LC-MS/MS analysis; format: ADME, organism-based, Neoplasm; parameters: time < 48 hrs, dose 25 mg/kg, route ig; details: po
[11] = AUC (infinity) in plasma of NOD-SCID mouse model xenografted with human PC-3 cells at 25 mg/kg, IG measured upto 48 hrs by LC-MS/MS analysis; format: ADME, organism-based; parameters: time < 48 hrs, dose 25 mg/kg, route ig; details: po
MGC-803 [12] = test: Induction of apoptosis in human MGC-803 cells assessed as early apoptotic cells at 5 uM incubated for 48 hrs by annexin V-FITC/PI staining based flow cytometry (reference value: 0.21 %); format: functional
MGC-803 [13] = test: Induction of cell cycle arrest in human MGC-803 cells assessed as accumulation of cells at S phase at 10 uM incubated for 24 hrs by flow cytometry (reference value: 20.41 %); format: functional
MGC-803 [14] = test: Induction of cell cycle arrest in human MGC-803 cells assessed as accumulation of cells at S phase at 10 uM incubated for 36 hrs by flow cytometry (reference value: 20.41 %); format: functional
[15] = Toxicity in mouse assessed as decrease in platelet level at 10 to 50 mg/kg; format: organism-based; details: dose 10-50 mg/kg
MGC-803 [16] = test: Induction of cell cycle arrest in human MGC-803 cells assessed as accumulation of cells at G1 phase at 5 uM incubated for 48 hrs by flow cytometry (reference value: 54.46 %); format: functional
PC-3 [17] = test: Induction of apoptosis in human PC-3 cells assessed as nuclear fragmentation incubated for 48 hrs; format: functional, cell-based; details: dose <= 10.0 µM
[18] = Toxicity in NOD-SCID mouse model xenografted with human MGC-803 cells assessed as change in liver histology at 10 to 50 mg/kg, IG administered once every 2 days for 21 days by H and E staining based analysis; format: organism-based; details: in vivo, po, 504 h, dose 10-50 mg/kg, time 21 day
MGC-803 [19] = test: Induction of cell cycle arrest in human MGC-803 cells assessed as accumulation of cells at S phase at 10 uM incubated for 48 hrs by flow cytometry (reference value: 20.41 %); format: functional
MGC-803 [20] = test: Induction of cell cycle arrest in human MGC-803 cells assessed as accumulation of cells at G1 phase at 10 uM incubated for 48 hrs by flow cytometry (reference value: 54.46 %); format: functional
[21] = target: S-phase kinase-associated protein 2 (Homo sapiens, UniProt Q13309); test: Inhibition of Skp2 in human PC-3 cells treated with shRNA 5'-GGACCTATCGAACTCAGTTAT-3' incubated upto 48 hrs by Western blot analysis (reference value: 4.8 +/- 0.5 microM); format: cell-based
MGC-803 [22] = test: Antitumor activity against human MGC-803 cells xenografted in NOD-SCID mouse model assessed as p21 accumulation at 10 to 50 mg/kg, IG administered once every 2 days for 21 days by Western blot analysis; format: functional, organism-based; details: dose 10-50 mg/kg, time 21.0 day
[23] = target: S-phase kinase-associated protein 2/Cyclin-dependent kinases regulatory subunit 1/S-phase kinase-associated protein 1 (Homo sapiens, UniProt Q13309); test: Inhibition of GST-tagged Skp2/Skp1 (unknown origin)/His6-tagged Cks1 (unknown origin) interaction preincubated with Skp2/Skp1 for 10 mins followed by Cks1 addition measured after 20 mins by HTRF assay; format: protein assay
MGC-803 [24] = test: Induction of cell cycle arrest in human MGC-803 cells assessed as accumulation of cells at G2 phase at 2.5 uM incubated for 48 hrs by flow cytometry (reference value: 21.35 %); format: functional
PC-3 [25] = test: Induction of apoptosis in human PC-3 cells assessed as necrotic cells at 5 uM incubated for 48 hrs by annexin V-FITC/PI staining based flow cytometry (reference value: 0.14 %); format: functional
[26] = Half life in tumor of NOD-SCID mouse model xenografted with human PC-3 cells at 25 mg/kg, IG measured upto 48 hrs by LC-MS/MS analysis; format: ADME, organism-based, Neoplasm; details: po
[27] = Metabolic stability in rat liver microsome assessed as half life at 20 umol/L preincubated for 5 mins followed by NADPH addition measured upto 60 mins by LC-MS/MS analysis; format: ADME; details: liver microsomes, dose 20 µmol/L, time < 65 min
A549 = test: Antitumor activity against human A549 cells with low Skp2 expression assessed as cell growth inhibition incubated for 72 hrs by MTT assay; format: functional, cell-based; details: A549, 72 h
[28] = Solubility in cell culture medium by HPLC analysis; format: physicochemical
[29] = Metabolic stability in human liver S9 fraction assessed as half life at 20 umol/L preincubated for 5 mins followed by NADPH addition measured upto 60 mins by LC-MS/MS analysis; format: ADME, subcellular; details: dose 20 µmol/L, time < 65 min
PC-3 [30] = test: Induction of apoptosis in human PC-3 cells assessed as viable cells at 10 uM incubated for 48 hrs by annexin V-FITC/PI staining based flow cytometry (reference value: 98.6 %); format: functional; details: read-out: Activity
PC-3 [31] = test: Antitumor activity against human PC-3 cells xenografted in NOD-SCID mouse model assessed as tumor growth inhibition at 50 mg/kg, IG administered once every 2 days for 21 days relative to control; format: functional; details: PC-3, po, 504 h, time 21 day, read-out: TGI
[32] = Toxicity in NOD-SCID mouse model xenografted with human MGC-803 cells assessed as change in spleen histology at 10 to 50 mg/kg, IG administered once every 2 days for 21 days by H and E staining based analysis; format: organism-based; details: in vivo, po, 504 h, dose 10-50 mg/kg, time 21 day

Sequence of S-phase kinase-associated protein 2 (Q13309 whole entry): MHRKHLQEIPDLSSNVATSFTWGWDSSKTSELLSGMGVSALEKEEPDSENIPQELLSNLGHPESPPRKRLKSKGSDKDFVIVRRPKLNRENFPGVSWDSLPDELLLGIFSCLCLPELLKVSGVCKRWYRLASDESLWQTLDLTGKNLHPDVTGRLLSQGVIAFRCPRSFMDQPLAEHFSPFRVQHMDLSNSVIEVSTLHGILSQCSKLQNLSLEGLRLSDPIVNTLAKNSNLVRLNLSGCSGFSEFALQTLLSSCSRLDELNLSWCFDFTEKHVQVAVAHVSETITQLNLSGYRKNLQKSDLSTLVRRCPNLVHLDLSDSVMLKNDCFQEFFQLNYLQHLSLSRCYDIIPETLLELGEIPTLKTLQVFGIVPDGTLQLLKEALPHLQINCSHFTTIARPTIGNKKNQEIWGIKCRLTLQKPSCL
Sequence of S-phase kinase-associated protein 2/Cyclin-dependent kinases regulatory subunit 1/S-phase kinase-associated protein 1 (P61024 whole entry): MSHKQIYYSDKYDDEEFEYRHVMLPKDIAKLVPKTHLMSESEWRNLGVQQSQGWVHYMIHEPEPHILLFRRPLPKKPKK
Sequence of S-phase kinase-associated protein 2/Cyclin-dependent kinases regulatory subunit 1/S-phase kinase-associated protein 1 (Q13309 whole entry): as the sequence (Q13309 whole entry) above
Sequence of S-phase kinase-associated protein 2/Cyclin-dependent kinases regulatory subunit 1/S-phase kinase-associated protein 1 (P63208 whole entry, further chain): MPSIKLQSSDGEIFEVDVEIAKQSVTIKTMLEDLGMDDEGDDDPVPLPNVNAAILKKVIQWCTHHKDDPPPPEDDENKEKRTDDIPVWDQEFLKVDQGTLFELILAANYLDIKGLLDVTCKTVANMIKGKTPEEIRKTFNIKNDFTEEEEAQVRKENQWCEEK

SMILES: O=C(CCl)NC1CCN(c2cnc(-c3ccccc3)c(-c3ccccc3)n2)CC1
- Activity (PC-3 [1]): 43.58%
- Activity (PC-3 [2]): 21.89%
- Activity (PC-3 [3]): 39.51%
- Activity (MGC-803 [4]): 17.72%
- inhibition (PC-3 [5]): Dose-Dependent Effect
- Activity (MGC-803 [6]): Active
- Activity (MGC-803 [7]): 21.86%
- Activity [8]: Toxic
- Activity (PC-3 [9]): Dose-Dependent Effect
- Cmax [10]: 182 ng/g
- AUC(0-inf) [11]: 3550 ng·h/mL
- Activity (MGC-803 [12]): 3.65%
- Activity (MGC-803 [13]): 35.4%
- Activity (MGC-803 [14]): 42.29%
- Activity [15]: Toxic
- Activity (MGC-803 [16]): 45.12%
- Activity (PC-3 [17]): Dose-Dependent Effect
- Activity [18]: Non-Toxic
- Activity (MGC-803 [19]): 38.76%
- Activity (MGC-803 [20]): 39.31%
- IC50 [21]: 38.5 µM
- Activity (MGC-803 [22]): Active
- IC50 [23]: 2.8 µM
- Activity (MGC-803 [24]): 23.15%
- Activity (PC-3 [25]): 5.15%
- half-life [26]: 12.6 h
- half-life at 20 µM [27]: 0.272 h
- IC50 (A549): 18.2 µM
- solubility [28]: 3.26 µg/mL (≈ 8.01 µM)
- half-life at 20 µM [29]: 1.08 h
- viability at 10 µM (PC-3 [30]): 58.6%
- inhibition in vivo at 50 mg/kg (PC-3 [31]): 90.4%
- Activity [32]: Non-Toxic
